Values belong to the molecule of their own block, whether it stands above or below them. The star is where a group is joined. thiocarboxylate = C-terminal -COSH in place of -COOH, S*
Tests used:
[1] = target: T1, holo-TthTtuA–TthTtuB complex (Thermus thermophilus, UniProt Q72LF3+Q72LF4); assay: X-ray crystal structure, […] Å; type: binding; conditions: reconstituted with ferric chloride and sulfide, anaerobic; bound by three Cys of TtuA, unique Fe coordinated by C-terminal carboxylate of TtuB
T1 construct: gene ttuA; co-expressed in E. coli B834(DE3) from pETDuet-1; His6-tag plus four residues at N-terminus of TtuB, TtuA untagged; TtuB-COOH form; TtuA-TtuB heterodimers

holo-TtuA = target: T2, holo-TtuA (Thermus thermophilus, UniProt Q72LF3); assay: EPR spectroscopy, X-band, […] K; type: binding; conditions: dithionite-reduced, anaerobic, no TtuB
T2 construct: TtuA without TtuB, prepared as in an earlier publication
T2 sequence (Q72LF3 1-321): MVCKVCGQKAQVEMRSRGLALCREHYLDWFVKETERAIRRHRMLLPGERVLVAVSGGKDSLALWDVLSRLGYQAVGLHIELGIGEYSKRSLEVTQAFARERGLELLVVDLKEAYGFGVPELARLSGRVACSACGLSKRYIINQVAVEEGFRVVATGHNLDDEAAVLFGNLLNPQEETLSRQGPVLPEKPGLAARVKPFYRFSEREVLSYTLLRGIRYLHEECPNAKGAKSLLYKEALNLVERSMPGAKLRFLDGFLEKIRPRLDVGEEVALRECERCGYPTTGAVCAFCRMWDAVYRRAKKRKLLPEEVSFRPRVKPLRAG

[2] = target: T3, holo-TtuA (purified alone, with [4Fe-4S] cluster) used for EPR with added TtuB-COSH (Thermus thermophilus, UniProt Q72LF3 1-321); assay: EPR spectroscopy; purified holo-TtuA mixed with TtuB-COSH (molar ratio 1:3, 0.6 mM:2.0 mM), incubated at 298 K for 5 min, reduced with sodium dithionite, frozen; X-band spectra at 7, 12 and 29 K; compared with TtuA without TtuB-COSH; conditions: both partners purified
T3 construct: TtuA, Thermus thermophilus; carries a [4Fe-4S] cluster, reduced with sodium dithionite for EPR; also called DT-reduced TtuA; source: purified
T3 sequence (looked up): T2 sequence (Q72LF3 1-321)

Molecule: [S]12[Fe]3[S]4[Fe]1[S]1[Fe]2[S]3[Fe]41 [[4Fe-4S] cluster]
X-ray crystal structure, 2.2 Å [1]: unique Fe site of the [4Fe-4S] cluster and the C-terminus of TtuB was observed
EPR spectroscopy, X-band, 12 K (holo-TtuA): TtuA in the absence of TtuB-COSH is the typical rhombic signal of the [4Fe-4S] cluster

binding result [2]: binds
B1: TtuB-COSH (TtuB with thiocarboxylated C-terminus) (natural protein, Thermus thermophilus, UniProt Q72LF4 1-65, looked up)
chain: MRVVLRLPERKEVEVKGNRPLREVLEELGLNPETVVAVRGEELLTLEDEVREEDTLEVLSAISGG-thiocarboxylate
notes: TtuB, ubiquitin-like sulfur donor protein, Thermus thermophilus; also called thiocarboxylated TtuB

— paper PMC7138817, “The [4Fe-4S] cluster of sulfurtransferase TtuA desulfurizes TtuB during tRNA modification in Thermus thermophilus” (Communications Biology, 2020)
